Values of other authors, collected in patent US20230285554A1, “COMBINED MEDICATION FOR TREATING SOFT TISSUE SARCOMA” (CHIA TAI TIANQING PHARMACEUTICAL GROUP CO., LTD., priority 2020, published 2023).

Test system: STS
Conditions: first-line chemotherapy

| Compound | efficacy in words |
| --- | --- |
| COc1cccc2c1C(=O)c1c(O)c3c(c(O)c1C2=O)C[C@@](O)(C(=O)CO)C[C@@H]3O[C@H]1C[C@H](N)[C@H](O)[C@H](C)O1 [adriamycin] | best efficacy |
| O=P1(NCCCl)OCCCN1CCCl (centres unmarked) [ifosfamide] | best efficacy |
